Patent US20040176442A1, “Potassium taurate bicarbonate and ascorbate” (priority 2003, published 2004)
Where “and” joins values, the source holds several entries; their conditions need not be identical. Equal values may be shown once.

System: Dahl salt-sensitive rats
Experiment: Systolic blood pressure of Dahl salt-sensitive rats on high salt diet, PTB in drinking water (tail-cuff plethysmography)
Type: in vivo, rat
Details: for Average systolic blood pressure: 13.5 grams/liter PTB in drinking water
Procedure: An experimental study was undertaken to assess the effect on blood pressure of oral PTB given in drinking water to Dahl salt-sensitive rats, which are known to experience an increase in blood pressure upon administration of salt. In this study, salt was administered in the diet to two groups of rats, a placebo group that received salt but not PTB and an active group that received both salt and PTB in drinking water.
The study was conducted as follows: Twenty-four Dahl salt-sensitive male rats were fed regular rat chow containing 0.24% (w/w) sodium chloride for an acclimatization period. The rats were then switched to a high salt diet (4% NaCl and 1.5% KCl) and were randomly divided into two groups of twelve rats each—an active group supplied with drinking water containing 13.5 grams/liter PTB (prepared as described in Example 2, and a placebo group receiving ordinary drinking water. Food and water were available ad libitum to both groups over the 28-day course of the study. The systolic blood pressure of each rat was determined twice a week over the course of the study by the tail-cuff plethysmography method. Each recorded blood pressure was the average of 3-5 individual readings.
Systolic blood pressure rose progressively after high-salt intake in the placebo group, reaching 172±4 mm Hg at day 28.

NCCS(=O)(=O)O.O=C([O-])O.[K+] [PTB, potassium taurate bicarbonate]
Blunting of the expected rise in systolic blood pressure (active vs placebo group) (by the end of the 28-day study, PTB in drinking water, high salt diet): 21 mm Hg
Average systolic blood pressure (day 3 after administration, high salt diet (4% NaCl and 1.5% KCl)): 114 mm Hg
Average systolic blood pressure (day 7 after administration, high salt diet): 126 mm Hg
Average systolic blood pressure (day 10 after administration, high salt diet): 133 mm Hg
Average systolic blood pressure (day 14 after administration, high salt diet): 134 mm Hg
Average systolic blood pressure (day 17 after administration, high salt diet): 138±2 mm Hg and 138 mm Hg
Average systolic blood pressure (day 21 after administration, high salt diet): 150 mm Hg
Average systolic blood pressure (day 24 after administration, high salt diet): 143±3 mm Hg and 143 mm Hg
Average systolic blood pressure (day 28 after administration, high salt diet): 151±3 mm Hg and 151 mm Hg
